Source: paper PMC4138103 (PLoS ONE, 2014)

Test system: Sprague-Dawley rats
Test: Brain amino acid analyses
Type: in vivo, Rattus norvegicus
Parameters: key to Glutathione, trend over total doses: D: significant dose response (for results, see Table 2); T: significant trend
Method: The right hemisphere of cerebrum was rapidly weighed and homogenized in ice cold 7% HClO4 [35] using a glass/teflon Potter-Elvehjem homogenizer (Schwaben Prazision Nordlingen type L43). α-Amino adipic acid was used as internal standard. Samples were neutralized to pH 6.5–7.5 with ice cold KOH/HCl and centrifuged for 20 min at 20 000 g and 4°C in a Sorvall RMC-14-micro centrifuge. Pellets were frozen at −40°C for later protein determination by the BCA-assay. Supernatants were stored at −40°C, filtered with Nylon-66 micro filters (mesh 0.22 µm; Nalgene) prior to HPLC analysis.
Total amino acids in extracts were analyzed, using a reversed-phase HPLC (ChromSpher 5 C18 column; length 25 cm, inner diameter 4.6 mm; Varian) fitted with a fluorescence detector (Shimadzu, Kyoto, Japan), after derivatization with o-phthaldialdehyde (OPA; Sigma). […] Each sample was eluted for 45 min with a flow rate of 0.4 ml/min. A mixture of the amino acids of interest was run as external standards at 100 µM. L-Amino acid standards for aspartic acid, glutamic acid, serine, glutamine, glycine and alanine] were obtained from Pierce (Rockford, Ill., USA), whereas taurine, γ-amino butyric acid, glutathione and α-amino adipic acid standards were from Sigma-Aldrich. Chromatograms were analyzed using the software Lab Solutions (Shimadzu).

[1] = brain, females, total dose 10 mg/kg bw, n 1
[2] = brain, females, total dose 30 mg/kg bw
[3] = brain, females, total dose 300 mg/kg bw
[4] = brain, females, total dose 1000 mg/kg bw
[5] = brain, males, total dose 10 mg/kg bw
[6] = brain, males, total dose 30 mg/kg bw
[7] = brain, males, total dose 300 mg/kg bw
[8] = brain, males, total dose 1000 mg/kg bw

Clc1cc(Cl)c(-c2cc(Cl)c(Cl)c(Cl)c2Cl)cc1Cl [PCB 180, 2,2′,3′,4,4′,5,5′-heptachlorobiphenyl]
Amino acid concentration in cerebrum vs controls (both genders, 10, 30, 300 or 1000 mg/kg bw): did not show significant differences
Alanine [1]: 14.25 nmol/mg protein
Aspartate [1]: 71.05 nmol/mg protein
Glutamate [1]: 124 nmol/mg protein
Glutamine [1]: 85.95 nmol/mg protein
Glutathione [1]: 16.96 nmol/mg protein
Glycine [1]: 43.99 nmol/mg protein
Serine [1]: 17.81 nmol/mg protein
Taurine [1]: 113.1 nmol/mg protein
γ-Amino butyric acid [1]: 42.71 nmol/mg protein
Alanine [2]: 12.67 nmol/mg protein
Aspartate [2]: 60.52 nmol/mg protein
Glutamate [2]: 110 nmol/mg protein
Glutamine [2]: 82.24 nmol/mg protein
Glutathione [2]: 12.19 nmol/mg protein
Glycine [2]: 43.93 nmol/mg protein
Serine [2]: 17.02 nmol/mg protein
Taurine [2]: 98.12 nmol/mg protein
γ-Amino butyric acid [2]: 40.16 nmol/mg protein
Alanine [3]: 13.51 nmol/mg protein
Aspartate [3]: 61.77 nmol/mg protein
Glutamate [3]: 111 nmol/mg protein
Glutamine [3]: 87.85 nmol/mg protein
Glutathione [3]: 11.70 nmol/mg protein
Glycine [3]: 48.50 nmol/mg protein
Serine [3]: 17.18 nmol/mg protein
Taurine [3]: 95.21 nmol/mg protein
γ-Amino butyric acid [3]: 41.47 nmol/mg protein
Alanine [4]: 13.04 nmol/mg protein
Aspartate [4]: 59.40 nmol/mg protein
Glutamate [4]: 109 nmol/mg protein
Glutamine [4]: 79.65 nmol/mg protein
Glutathione [4]: 10.79 nmol/mg protein
Glycine [4]: 43.12 nmol/mg protein
Serine [4]: 16.71 nmol/mg protein
Taurine [4]: 97.62 nmol/mg protein
γ-Amino butyric acid [4]: 40.90 nmol/mg protein
Alanine [5]: 11.68 nmol/mg protein
Aspartate [5]: 59.00 nmol/mg protein
Glutamate [5]: 110 nmol/mg protein
Glutamine [5]: 81.50 nmol/mg protein
Glutathione [5]: 12.48 nmol/mg protein
Glycine [5]: 38.78 nmol/mg protein
Serine [5]: 17.39 nmol/mg protein
Taurine [5]: 93.04 nmol/mg protein
γ-Amino butyric acid [5]: 36.29 nmol/mg protein
Alanine [6]: 12.16 nmol/mg protein
Aspartate [6]: 60.01 nmol/mg protein
Glutamate [6]: 106 nmol/mg protein
Glutamine [6]: 68.58 nmol/mg protein
Glutathione [6]: 11.48 nmol/mg protein
Glycine [6]: 38.07 nmol/mg protein
Serine [6]: 16.11 nmol/mg protein
Taurine [6]: 93.22 nmol/mg protein
γ-Amino butyric acid [6]: 36.82 nmol/mg protein
Alanine [7]: 13.02 nmol/mg protein
Aspartate [7]: 58.39 nmol/mg protein
Glutamate [7]: 111 nmol/mg protein
Glutamine [7]: 76.57 nmol/mg protein
Glutathione [7]: 10.37 nmol/mg protein
Glycine [7]: 39.90 nmol/mg protein
Serine [7]: 17.20 nmol/mg protein
Taurine [7]: 95.86 nmol/mg protein
γ-Amino butyric acid [7]: 36.14 nmol/mg protein
Alanine [8]: 12.29 nmol/mg protein
Aspartate [8]: 54.56 nmol/mg protein
Glutamate [8]: 103 nmol/mg protein
Glutamine [8]: 72.52 nmol/mg protein
Glutathione [8]: 9.97 nmol/mg protein
Glycine [8]: 40.40 nmol/mg protein
Serine [8]: 16.45 nmol/mg protein
Taurine [8]: 88.63 nmol/mg protein
γ-Amino butyric acid [8]: 35.69 nmol/mg protein
Glutathione, trend over total doses (brain, males, total doses 0-1000 mg/kg bw): T
Cerebrum glutathione concentration, max. decrease (males, at 1000 mg/kg): 18%
